According to ChEMBL document CHEMBL3739399, “Discovery of Indazole Derivatives as a Novel Class of Bacterial Gyrase B Inhibitors” (ACS Med Chem Lett, 2015):
Converted amounts (≈) assume the structure as drawn.

Key:
[1] = Inhibition of Staphylococcus aureus topoisomerase 4 by fluorescence analysis
[2] = test system: Staphylococcus aureus; experiment: Antibacterial activity against methicillin and ciprofloxacin-resistant Staphylococcus aureus 1721 for 18 to 20 hrs by broth microdilution method; assay type: functional
[3] = test system: Staphylococcus aureus; experiment: Antibacterial activity against methicillin-sensitive Staphylococcus aureus 42 for 18 to 20 hrs by broth microdilution method; assay type: functional
[4] = biological target: DNA gyrase subunit B (Staphylococcus aureus, UniProt P0A0K8); experiment: Inhibition of Staphylococcus aureus Gyrase B ATPase activity by fluorescence analysis
DNA gyrase subunit B, sequence (P0A0K8 whole entry): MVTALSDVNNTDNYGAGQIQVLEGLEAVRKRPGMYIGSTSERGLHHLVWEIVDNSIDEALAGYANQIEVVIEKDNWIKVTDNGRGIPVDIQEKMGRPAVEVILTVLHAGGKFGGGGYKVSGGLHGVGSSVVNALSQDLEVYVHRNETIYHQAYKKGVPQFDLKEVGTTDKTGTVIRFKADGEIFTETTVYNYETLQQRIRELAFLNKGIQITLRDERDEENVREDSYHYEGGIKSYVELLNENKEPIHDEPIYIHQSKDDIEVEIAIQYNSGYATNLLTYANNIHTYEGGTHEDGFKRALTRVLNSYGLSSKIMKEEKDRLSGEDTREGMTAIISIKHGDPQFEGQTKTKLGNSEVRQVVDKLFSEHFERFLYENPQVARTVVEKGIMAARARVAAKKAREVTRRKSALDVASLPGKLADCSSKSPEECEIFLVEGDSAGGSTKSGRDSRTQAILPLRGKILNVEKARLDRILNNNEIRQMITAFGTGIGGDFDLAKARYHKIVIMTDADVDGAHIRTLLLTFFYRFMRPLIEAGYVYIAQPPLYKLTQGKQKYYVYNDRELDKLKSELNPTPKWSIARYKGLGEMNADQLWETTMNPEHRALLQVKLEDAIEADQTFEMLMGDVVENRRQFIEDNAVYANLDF

[5] = test system: Enterococcus faecium; experiment: Antibacterial activity against Enterococcus faecium for 18 to 20 hrs by broth microdilution method; assay type: functional
[6] = test system: Staphylococcus aureus; experiment: Antibacterial activity against methicillin-resistant Staphylococcus aureus 1118 for 18 to 20 hrs by broth microdilution method; assay type: functional
[7] = test system: Streptococcus pneumoniae; experiment: Antibacterial activity against Streptococcus pneumoniae for 18 to 24 hrs by broth microdilution method; assay type: functional
[8] = test system: Enterococcus faecalis; experiment: Antibacterial activity against Enterococcus faecalis for 18 to 20 hrs by broth microdilution method; assay type: functional
[9] = Log D of compound at pH 7.4; conditions: buffer
[10] = test system: Streptococcus pneumoniae; experiment: Antibacterial activity against Streptococcus pneumoniae 402 infected in sc dosed mouse assessed as reduction in 3 log CFU in lung compound administered as BID for 1 day measured 24 hrs after last dose; assay type: functional
[11] = test system: Streptococcus pneumoniae; experiment: Antibacterial activity against Streptococcus pneumoniae 402 infected in sc dosed mouse assessed as reduction in 2 log CFU in lung compound administered as BID for 1 day measured 24 hrs after last dose; assay type: functional
[12] = test system: Staphylococcus aureus; experiment: Antibacterial activity against Staphylococcus aureus 1118 infected in sc and iv dosed mouse assessed as septicemia compound administered 1 hr post-infection twice for 1 day measured for 7 days; assay type: functional; conditions: read-out: PD50
[13] = Clearance in mouse at 2 mg/kg, iv by LC-MS/MS analysis; assay type: ADME, organism-based; conditions: in vivo
[14] = Half-life in mouse at 2 mg/kg, iv by LC-MS/MS analysis; assay type: ADME, organism-based; conditions: in vivo
[15] = test system: Mus musculus; experiment: Dose-normalized AUC in mouse at 2 mg/kg, iv by LC-MS/MS analysis; assay type: ADME, organism-based; conditions: in vivo
[16] = Volume of distribution at steady state in mouse at 2 mg/kg, iv by LC-MS/MS analysis; assay type: ADME, organism-based; conditions: in vivo, read-out: Vdss

Structure (SMILES)	IC50 [1] [nM]	MIC [2] [µg/mL]	MIC [3] [µg/mL]	IC50 [4] [nM]	MIC [5] [µg/mL]	MIC [6] [µg/mL]	MIC [7] [µg/mL]	MIC [8] [µg/mL]	logD [9]	ED [10] [mg/kg]	ED [11] [mg/kg]	ED50 [12] [mg/kg]	clearance [13] [mL/min/kg]	half-life [14] [h]	AUC/dose [15] [µg·h/mL/mg/kg]	Vd [16] [L/kg]
CCCc1cccc2c(-c3cnc(-c4cnc(C(=O)O)c(OC)c4)s3)n[nH]c12	115	> 8	1 (≈ 2.54 µM)	14	4 (≈ 10.1 µM)	1 (≈ 2.54 µM)	1 (≈ 2.54 µM)	2 (≈ 5.07 µM)								
CCCc1cccc2c(-c3cnc(-c4ccc(COP(=O)(O)O)nc4)s3)n[nH]c12	147	0.5 (≈ 1.16 µM)	0.25 (≈ 0.581 µM)	9	2 (≈ 4.65 µM)	0.25 (≈ 0.581 µM)	2 (≈ 4.65 µM)	> 8								
CCCc1c(O)ccc2c(-c3cnc(-c4cnc(C(=O)O)c(O)c4)s3)n[nH]c12		2 (≈ 5.05 µM)	1 (≈ 2.52 µM)	13	0.25 (≈ 0.631 µM)	4 (≈ 10.1 µM)	0.25 (≈ 0.631 µM)	0.125 (≈ 0.315 µM)								
CCOc1nccc2c(-c3cnc(-c4cnc(C(=O)O)cc4C)s3)n[nH]c12		0.5 (≈ 1.31 µM)	0.25 (≈ 0.655 µM)	< 8	0.5 (≈ 1.31 µM)	0.5 (≈ 1.31 µM)	0.125 (≈ 0.328 µM)	0.25 (≈ 0.655 µM)								
CCCOc1nccc2c(-c3cnc(-c4ccc(COP(=O)([O-])[O-])nc4)s3)n[nH]c12.[Na+].[Na+]		> 8	8	< 8	8	8	1	> 8								
CCCc1cccc2c(-c3cnc(-c4ccc(C(=O)NCCN5CCCCC5)nc4)s3)n[nH]c12	> 2000	2 (≈ 4.21 µM)	2 (≈ 4.21 µM)	20	> 8	1 (≈ 2.11 µM)	> 8	> 8								
CCOc1cccc2c(-c3cnc(-c4ccc(C(=O)O)c(F)c4)s3)n[nH]c12		1 (≈ 2.61 µM)	0.5 (≈ 1.3 µM)	< 8	2 (≈ 5.22 µM)	0.5 (≈ 1.3 µM)	1 (≈ 2.61 µM)	1 (≈ 2.61 µM)								
CCCc1cccc2c(-c3cnc(-c4ccnc(C(=O)O)c4)s3)n[nH]c12	> 1000	> 8	> 8	11	> 8	> 8	1 (≈ 2.74 µM)	> 8								
CCCc1c(O)ccc2c(-c3cnc(-c4ccc(C(=O)O)c(F)c4)s3)n[nH]c12		0.25 (≈ 0.629 µM)	0.125 (≈ 0.315 µM)	11	0.02 (≈ 0.0503 µM)	0.25 (≈ 0.629 µM)	0.06 (≈ 0.151 µM)	0.02 (≈ 0.0503 µM)								
CCCn1c(=O)ccc2c(-c3cnc(-c4ccc(C(=O)O)nc4)s3)n[nH]c21	56		> 32	< 8			0.06 (≈ 0.157 µM)		0.9							
O=C(O)c1ccc(-c2ncc(-c3n[nH]c4c(CC5CC5)cccc34)s2)cn1		0.1 (≈ 0.266 µM)	0.05 (≈ 0.133 µM)	13	4 (≈ 10.6 µM)	0.05 (≈ 0.133 µM)	0.5 (≈ 1.33 µM)	0.125 (≈ 0.332 µM)								
CO[C@@H]1[C@@H](OC(N)=O)[C@@H](O)[C@H](Oc2ccc3c(O)c(NC(=O)c4ccc(O)c(CC=C(C)C)c4)c(=O)oc3c2C)OC1(C)C [NOVOBIOCIN]						0.125 (≈ 0.204 µM)	2 (≈ 3.26 µM)			>100	>100	10				
CCCc1cccc2c(-c3cnc(-c4cnc(C(=O)OC)c(O)c4)s3)n[nH]c12	68	2 (≈ 5.07 µM)	1 (≈ 2.54 µM)	< 8	2 (≈ 5.07 µM)	1 (≈ 2.54 µM)	1 (≈ 2.54 µM)	1 (≈ 2.54 µM)								
CCCc1cccc2c(-c3cnc(-c4ccc(C(=O)O)nc4)s3)n[nH]c12	56	0.06 (≈ 0.165 µM)	0.06 (≈ 0.165 µM)	10	0.06 (≈ 0.165 µM)	0.06 (≈ 0.165 µM)	0.06 (≈ 0.165 µM)	0.03 (≈ 0.0823 µM)	1.7	>25	>25	1	105	2.1	0.159	3.47
CCCOc1nccc2c(-c3cnc(-c4ccc(C(=O)O)nc4)s3)n[nH]c12		8 (≈ 21 µM)	4 (≈ 10.5 µM)	< 8	2 (≈ 5.24 µM)	4 (≈ 10.5 µM)	0.06 (≈ 0.157 µM)	2 (≈ 5.24 µM)								
